Data from ChEMBL document CHEMBL1132650, “4,5-Dihydro-1,2,4-triazolo[1,5-a]quinoxalin-4-ones: excitatory amino acid antagonists with combined glycine/NMDA and AMPA receptor affinity” (J Med Chem, 1999).

Tests used:
[1] = target: T1, Glutamate receptor ionotropic, NMDA 1 (Rattus norvegicus, UniProt P35439); assay: Functional antagonism at the N-methyl-D-aspartate glutamate receptor 1 was demonstarted by the ability to inhibit the binding of the channel-blocking agent [3H](+)-MK-801
[2] = target: T2, Glutamate receptor ionotropic, AMPA (Rattus norvegicus, UniProt P19490+P19491+P19492+P19493); assay: Binding affinity towards ionotropic glutamate receptor AMPA in rat cortical membranes using [3H]AMPA radioligand; type: cell membranes
[3] = target: T1, Glutamate receptor ionotropic, NMDA 1; assay: Binding affinity towards N-methyl-D-aspartate glutamate receptor 1 in rat cortical membranes using [3H]glycine as radioligand; type: cell membranes
[4] = target: T2, Glutamate receptor ionotropic, AMPA; assay: The compound was tested for its binding affinity towards AMPA receptor in rat cortical membranes using [3H]AMPA radioligand; type: cell membranes
[5] = target: T1, Glutamate receptor ionotropic, NMDA 1; assay: The compound was tested for its binding affinity towards Glycine/NMDA receptor in rat cortical membranes using [3H]glycine as radioligand; type: cell membranes
[6] = target: T1, Glutamate receptor ionotropic, NMDA 1; assay: Functional antagonism at the NMDA receptor-ion channel complex was demonstarted by the ability to inhibit the binding of the channel-blocking agent [3H](+)-MK-801

EC50 [1]	Ki [2]	Ki [3]	Ki [4]	Ki [5]	EC50 [6]	Compound
0.33 µM						O=C(O)c1cc(O)c2c(Cl)cc(Cl)cc2n1
> 100 µM	> 100 µM	> 100 µM				CCOC(=O)c1nc2c(=O)[nH]c3cc(N)ccc3n2n1
	72.1 µM	88.2 µM				CCOC(=O)c1nc2c(=O)[nH]c3ccc(Cl)cc3n2n1
32.5 µM	18.4 µM	3.5 µM				O=C(O)c1nc2c(=O)[nH]c3ccc(Cl)cc3n2n1
2.9 µM	0.78 µM	0.17 µM				O=C(O)c1nc2c(O)nc3cc(Cl)ccc3n2n1
	7.7 µM	27.7 µM				O=C(NCCO)c1nc2c(O)nc3cc(Cl)ccc3n2n1
	3.3 µM	2.6 µM				CCOC(=O)c1nc2c(O)nc3cc(Br)ccc3n2n1
69 µM	28.5 µM	16.7 µM				CCOC(=O)c1nc2c(O)nc3ccccc3n2n1
			3 µM	1.1 µM		O=C(NO)c1nc2c(O)nc3cc(Cl)ccc3n2n1
	2 µM	9.7 µM				N#CCc1nc2c(O)nc3cc(Cl)ccc3n2n1
3.18 µM	0.9 µM	0.57 µM				O=C(O)c1nc2c(O)nc3cc(C(F)(F)F)ccc3n2n1
4.9 µM	13.6 µM	1.1 µM				O=C(O)c1nc2c(=O)[nH]c3ccccc3n2n1
> 100 µM	> 100 µM	88 µM				CCn1c(=O)c2nc(C(=O)O)nn2c2ccc(Cl)cc21
	2.1 µM	6.5 µM				CCOC(=O)Cc1nc2c(=O)[nH]c3cc(Cl)ccc3n2n1
1.35 µM	1.53 µM	0.14 µM				O=C(O)c1nc2c(=O)[nH]c3cc(Cl)cc(Cl)c3n2n1
> 100 µM	4 µM	4.5 µM				O=C(O)c1nc2c(O)nc3c([N+](=O)[O-])cc(Cl)cc3n2n1

EC50 [1]	Ki [2]	Ki [3]	Ki [4]	Ki [5]	EC50 [6]	Compound
	4.1 µM	5.4 µM				COC(=O)CNC(=O)c1nc2c(=O)[nH]c3cc(Cl)ccc3n2n1
	2.4 µM	5.1 µM				O=C(Nc1nn[nH]n1)c1nc2c(O)nc3cc(Cl)ccc3n2n1
	1.3 µM			0.074 µM	0.3 µM	O=C(O)c1nc2c(=O)[nH]c3cc(Cl)c(Cl)cc3n2n1
	11.7 µM	7.2 µM				NC(=O)c1nc2c(=O)[nH]c3cc(Cl)ccc3n2n1
	3.2 µM	8.8 µM				O=C(O)CNC(=O)c1nc2c(O)nc3cc(Cl)ccc3n2n1
> 100 µM	10.7 µM	79.4 µM				O=C(O)c1nc2c(O)nc3ccc([N+](=O)[O-])cc3n2n1
3.7 µM	4.4 µM	0.39 µM				O=C(O)c1nc2c(=O)[nH]c3cc(Br)ccc3n2n1
	3.7 µM	1.1 µM				O=C(O)Cc1nc2c(O)nc3cc(Cl)ccc3n2n1
	1.2 µM	2.2 µM				O=C(O)c1nc2c(O)nc3cc(Cl)c([N+](=O)[O-])cc3n2n1
			5 µM	9.6 µM		NNC(=O)c1nc2c(=O)[nH]c3cc(Cl)ccc3n2n1
	4.9 µM	4.8 µM				CCOC(=O)c1nc2c(=O)[nH]c3cc(Cl)cc(Cl)c3n2n1
22.1 µM	2.6 µM	3 µM				CCOC(=O)c1nc2c(O)nc3cc(Cl)ccc3n2n1
1.5 µM	33.9 µM	0.71 µM				CCOC(=O)c1nc2c(O)nc3cc(Cl)c(Cl)cc3n2n1
	3.6 µM	1.8 µM				CCOC(=O)c1nc2c(=O)[nH]c3cc(C(F)(F)F)ccc3n2n1
	4.4 µM	7.5 µM				OCc1nc2c(O)nc3cc(Cl)ccc3n2n1

Compound	EC50 [1]	Ki [2]	Ki [3]	Ki [4]	Ki [5]	EC50 [6]
O=C(O)c1nc2c(=O)[nH]c3cc([N+](=O)[O-])ccc3n2n1	7.8 µM	0.6 µM	0.71 µM			
